Test results: ChEMBL document CHEMBL1201862, “PubChem BioAssay data set” (2004)
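Briefly, cells in 96-well plates were exposed to five compound concentrations for 48 h, and endpoints were estimated by linear interpolation. GI50 marks 50% less growth.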 Activity calls are given as the source filed them. Rule as the data show it: active = GI50 up to about 1.1 µM and inactive = higher.

How the values were obtained:
Test in all cases: NCI tumour cell line growth inhibition, 48 h
SF-539 = system: SF-539
SK-MEL-2 = system: SK-MEL-2
HT-29 = system: HT-29
NCI-H226 = system: NCI-H226
Malme-3M = system: Malme-3M
NCI-H522 = system: NCI-H522
A549 = system: A549
TK-10 = system: TK-10
K562 = system: K562
ACHN = system: ACHN
LOX IMVI = system: LOX IMVI
SK-MEL-28 = system: SK-MEL-28
SW-620 = system: SW-620
SN12C = system: SN12C
IGROV-1 = system: IGROV-1
UACC-62 = system: UACC-62
A498 = system: A498
HL-60 = system: HL-60

Structure (SMILES)	GI50 (SF-539)	GI50 (SK-MEL-2)	GI50 (HT-29)	GI50 (NCI-H226)	GI50 (Malme-3M)	GI50 (NCI-H522)	GI50 (A549)	GI50 (TK-10)	GI50 (K562)	GI50 (ACHN)	GI50 (LOX IMVI)	GI50 (SK-MEL-28)	GI50 (SW-620)	GI50 (SN12C)	GI50 (IGROV-1)	GI50 (UACC-62)	GI50 (A498)	GI50 (HL-60)
COc1cccc(/C=C2\C(=O)N(C(=O)c3ccc(NC(C)=O)cc3)N=C2C)c1	> 100 µM (inactive)	> 100 µM (inactive)	> 100 µM (inactive)	> 100 µM (inactive)	> 100 µM (inactive)	> 100 µM (inactive)	> 100 µM (inactive)	> 100 µM (inactive)	> 100 µM (inactive)	> 100 µM (inactive)	> 100 µM (inactive)	> 100 µM (inactive)	> 100 µM (inactive)	> 100 µM (inactive)				
Cc1cc(O)c(C(=O)O)c2c1C(=O)c1c(O)c(OCC(O)C(O)C(O)C(O)CO)c(O)c(O)c1C2=O.NCCNCCO (stereo not drawn)	> 100 µM (inactive)	> 100 µM (inactive)	> 100 µM (inactive)	> 100 µM (inactive)	> 100 µM (inactive)	> 100 µM (inactive)	> 100 µM (inactive)	> 100 µM (inactive)	> 100 µM (inactive)		> 100 µM (inactive)	> 100 µM (inactive)	> 100 µM (inactive)	> 100 µM (inactive)	> 100 µM (inactive)	> 100 µM (inactive)	> 100 µM (inactive)	
N#CC1=C(c2ccccc2)NNC(c2ccc(Cl)cc2)CC1=O (stereo not drawn)		29.4 µM (inactive)	30.8 µM (inactive)	0.165 µM (active)	32.4 µM (inactive)	20.4 µM (inactive)	39.9 µM (inactive)	> 100 µM (inactive)		49.2 µM (inactive)	32.8 µM (inactive)	91.4 µM (inactive)	33.5 µM (inactive)	45.5 µM (inactive)			68.7 µM (inactive)	17.6 µM (inactive)
COC(=O)C1(c2ccc(OC)cc2)NC(c2ccccc2)C2C(=O)N(c3ccc(OC)cc3)C(=O)C21 (stereo not drawn)	> 100 µM (inactive)	> 100 µM (inactive)	> 100 µM (inactive)		> 100 µM (inactive)	> 100 µM (inactive)	> 100 µM (inactive)	> 100 µM (inactive)	> 100 µM (inactive)	> 100 µM (inactive)	> 100 µM (inactive)	> 100 µM (inactive)	> 100 µM (inactive)	> 100 µM (inactive)	> 100 µM (inactive)	> 100 µM (inactive)	> 100 µM (inactive)	> 100 µM (inactive)
COc1ccc(-c2nc(Sc3c([N+](=O)[O-])ncn3C)n[nH]2)cc1	1.87 µM (inactive)	2.25 µM (inactive)	2.39 µM (inactive)	13.4 µM (inactive)	2.6 µM (inactive)	2.27 µM (inactive)	12.4 µM (inactive)	6.17 µM (inactive)	2.99 µM (inactive)	3.61 µM (inactive)	2.72 µM (inactive)	4.21 µM (inactive)	3.26 µM (inactive)	2.64 µM (inactive)	4.12 µM (inactive)	3.08 µM (inactive)	10.5 µM (inactive)	
COC1(OC)CC2C(=O)N(Cc3ccccc3)C1C(S(=O)(=O)c1ccccc1)C2C(C)S(=O)(=O)c1ccccc1 (stereo not drawn)	> 100 µM (inactive)	> 100 µM (inactive)	> 100 µM (inactive)		> 100 µM (inactive)	> 100 µM (inactive)	> 100 µM (inactive)	> 100 µM (inactive)	> 100 µM (inactive)	> 100 µM (inactive)	> 100 µM (inactive)	> 100 µM (inactive)	> 100 µM (inactive)	> 100 µM (inactive)	> 100 µM (inactive)	> 100 µM (inactive)		> 100 µM (inactive)
Cc1ccccc1NC(=O)C1C(=O)N(c2ccccc2C)C(=O)/C1=N\NC(N)=S (stereo not drawn)	> 100 µM (inactive)	> 100 µM (inactive)	> 100 µM (inactive)	> 100 µM (inactive)	> 100 µM (inactive)	> 100 µM (inactive)	> 100 µM (inactive)	> 100 µM (inactive)	> 100 µM (inactive)	> 100 µM (inactive)	> 100 µM (inactive)	> 100 µM (inactive)	> 100 µM (inactive)	> 100 µM (inactive)	> 100 µM (inactive)	> 100 µM (inactive)		> 100 µM (inactive)
COc1cccc(OC)c1C(=O)OCc1ccccc1	> 100 µM (inactive)	> 100 µM (inactive)	> 100 µM (inactive)	> 100 µM (inactive)		> 100 µM (inactive)	> 100 µM (inactive)	> 100 µM (inactive)	> 100 µM (inactive)	> 100 µM (inactive)		> 100 µM (inactive)	> 100 µM (inactive)	> 100 µM (inactive)	> 100 µM (inactive)	> 100 µM (inactive)		> 100 µM (inactive)
OC12CCC3(O)c4ccccc4C3C1c1ccccc12 (stereo not drawn)		> 100 µM (inactive)	> 100 µM (inactive)	> 100 µM (inactive)	> 100 µM (inactive)	> 100 µM (inactive)	> 100 µM (inactive)	> 100 µM (inactive)	> 100 µM (inactive)	> 100 µM (inactive)	> 100 µM (inactive)	> 100 µM (inactive)	> 100 µM (inactive)	> 100 µM (inactive)		> 100 µM (inactive)		> 100 µM (inactive)
CN(c1ccccc1)c1nc(=[N+]2CCCC2)ss1.[O-][Cl+3]([O-])([O-])[O-]		> 100 µM (inactive)		> 100 µM (inactive)	> 100 µM (inactive)	1.7 µM (inactive)	> 100 µM (inactive)	> 100 µM (inactive)	74.5 µM (inactive)	> 100 µM (inactive)		> 100 µM (inactive)	> 100 µM (inactive)	> 100 µM (inactive)	> 100 µM (inactive)	> 100 µM (inactive)	> 100 µM (inactive)	> 100 µM (inactive)
CC(=O)CC(=O)ON(C)C(=O)Cc1ccccc1	> 100 µM (inactive)		> 100 µM (inactive)	> 100 µM (inactive)	> 100 µM (inactive)	> 100 µM (inactive)	> 100 µM (inactive)	> 100 µM (inactive)	> 100 µM (inactive)	> 100 µM (inactive)	> 100 µM (inactive)	> 100 µM (inactive)	> 100 µM (inactive)	> 100 µM (inactive)	> 100 µM (inactive)	> 100 µM (inactive)		> 100 µM (inactive)
CC(=O)c1c2c(cc3c1CC1(C3)Cc3cc4c(c(C(=O)O)c3C1)CCC4)CCC2 (stereo not drawn)	19.2 µM (inactive)		44.5 µM (inactive)		29.4 µM (inactive)	15.9 µM (inactive)	30.8 µM (inactive)	42.3 µM (inactive)	32.6 µM (inactive)	35.9 µM (inactive)	32.4 µM (inactive)	44.5 µM (inactive)	48.6 µM (inactive)	31.4 µM (inactive)	50.7 µM (inactive)	28.6 µM (inactive)		16.7 µM (inactive)
O=C1CCCCCCCCCCC1CN1CCCCC1 (stereo not drawn)		> 100 µM (inactive)	35.6 µM (inactive)	28.2 µM (inactive)	> 100 µM (inactive)	> 100 µM (inactive)	> 100 µM (inactive)	38.4 µM (inactive)	94.4 µM (inactive)	> 100 µM (inactive)	70.6 µM (inactive)	41.6 µM (inactive)	> 100 µM (inactive)	> 100 µM (inactive)	74.3 µM (inactive)	88.9 µM (inactive)	> 100 µM (inactive)	87.1 µM (inactive)
CC(=O)Oc1cc(Cl)c(OC(C)=O)c2c(OC(C)=O)c(C)c(O[Si](C)(C)C(C)(C)C)cc12	14.5 µM (inactive)	17.9 µM (inactive)				5.07 µM (inactive)	5.3 µM (inactive)	5.31 µM (inactive)	3.22 µM (inactive)		4.01 µM (inactive)	3.05 µM (inactive)	2.8 µM (inactive)	11.1 µM (inactive)	3.64 µM (inactive)		2.09 µM (inactive)	2.84 µM (inactive)
C/C(=N/Nc1ccc([N+](=O)[O-])cc1[N+](=O)[O-])C(CC(C(=O)NCc1ccccc1)/C(C)=N\Nc1ccc([N+](=O)[O-])cc1[N+](=O)[O-])C(=O)NCc1ccccc1 (stereo not drawn)	4.06 µM (inactive)	10.1 µM (inactive)	6.14 µM (inactive)	11.2 µM (inactive)	12.2 µM (inactive)	< 0.01 µM (active)	4.4 µM (inactive)			5.46 µM (inactive)		7.8 µM (inactive)	10.8 µM (inactive)	4.05 µM (inactive)	13.7 µM (inactive)	11.7 µM (inactive)	14.8 µM (inactive)	< 0.01 µM (active)
O=C1N[C@@H]2C(=C[C@H](O)[C@@H](O)[C@H]2O)c2cc3c(c(O)c21)OCO3 [NARCICLASINE]	0.045 µM (active)	0.045 µM (active)	0.045 µM (active)	0.045 µM (active)	0.045 µM (active)		0.045 µM (active)		0.045 µM (active)		0.045 µM (active)	0.045 µM (active)	0.045 µM (active)	0.045 µM (active)	0.045 µM (active)	0.045 µM (active)	0.045 µM (active)	0.0646 µM (active)
CN(C)[C@@H]1C(O)=C(C(=O)NCN2CCN(C(=N)NC(=N)N)CC2)C(=O)[C@@]2(O)C(O)=C3C(=O)c4c(O)cccc4[C@@](C)(O)[C@H]3C[C@@H]12	0.216 µM (active)	0.113 µM (active)	0.123 µM (active)		0.269 µM (active)	0.0329 µM (active)		0.468 µM (active)	0.0401 µM (active)	0.306 µM (active)	0.156 µM (active)	0.238 µM (active)	0.16 µM (active)	0.338 µM (active)	0.207 µM (active)	0.172 µM (active)	1.14 µM (inactive)	0.0236 µM (active)
